Test results: the Deep4Chem optical property database

Assay: solvent given as SMILES

With CCOC(=O)c1c(-c2cc3ccccc3oc2=O)nn(-c2ccc(Cl)cc2)c1C(=O)OCC the emission maximum (in ClCCl) was 402 nm.
Work on COc1cccc(OC)c1-c1c2ccc(=[N+]3CCN(C(=O)OC(C)(C)C)CC3)cc-2oc2cc(N3CCN(C(=O)OC(C)(C)C)CC3)ccc12 yielded an emission maximum (in ClCCl) of 580 nm.
In the case of Cn1cc(/C=C/C(=O)c2ccccc2)c2ccccc21, the emission maximum (in CC#N) is reported as 419.32 nm and the emission maximum (in CO) is reported as 446.19 nm.
In the case of c1csc(-c2nc3ccccc3c3cc4ccccn4c23)c1, the emission maximum (in CS(C)=O) is reported as 508 nm.
CCCCN1c2ccccc2B(c2ccccc2C(F)(F)F)c2ccccc21 showed an emission maximum (in ClCCl) of 401 nm.
For S=P1(c2ccccc2)C(c2ccccc2)=Cc2cc3ccccc3cc21 (stereo not drawn), the emission maximum (in ClCCl) was 425 nm.
With COc1ccc2c(c1)c(C#N)c(C#N)c1cc(OC)ccc12 the emission maximum (in ClC(Cl)Cl) was 440 nm.
Work on C1=[N+](c2ccccc2)[B-](c2ccccc2)(c2ccccc2)Oc2c1ccc1c3c(ccc21)C=[N+](c1ccccc1)[B-](c1ccccc1)(c1ccccc1)O3 yielded an emission maximum (in Cc1ccccc1) of 602 nm and an emission maximum (in ClCCl) of 594 nm.
CCCCCCN1C(=O)c2cccc3cc(/N=C\c4ccc(N5CCOCC5)cc4)cc(c23)C1=O showed an emission maximum (in ClC(Cl)Cl) of 557 nm.
In the case of COCCC1=Cc2nc1ccc1[nH]c(cc1CCOC)c1nc(ccc3[nH]c2cc3CCOC)C(CCOC)=C1, the emission maximum (in Cc1ccccc1) is reported as 642 nm.
N#Cc1ccc(C#Cc2ccccc2C#N)cc1 gave an emission maximum (in ClC(Cl)Cl) of 332 nm.
COc1ccc(C2=C3C(C)=CC(C=Cc4ccc(C(=O)OC5C[C@H]6CCC5(C)C6(C)C)cc4)=[N+]3[B-](F)(F)n3c(C)cc(C)c32)cc1 (stereo partly drawn) showed an emission maximum (in Cc1ccccc1) of 627 nm.
With CN(C)CCCN1c2ccccc2CCc2ccccc21 the emission maximum (in CC#N) was 348 nm, the emission maximum (in CO) was 353 nm and the emission maximum (in O) was 400 nm.
Work on CCCCCCCCCCCCn1c(-c2cc(-c3nc4ccccc4n3CCCCCCCCCCCC)cc(-c3nc4ccccc4n3CCCCCCCCCCCC)c2)nc2ccccc21 yielded an emission maximum (in C1CCOC1) of 367.4 nm.
F[B-]1(F)n2cccc2C(c2ccc(-c3c4ccccc4c(-c4ccccc4)c4ccccc34)cc2)=C2C=CC=[N+]21 showed an emission maximum (in CC#N) of 516 nm, an emission maximum (in CCCCCC) of 517 nm and an emission maximum (in CCO) of 516 nm. For the same compound, the emission maximum (in CN(C)C=O) was 520 nm, the emission maximum (in Cc1ccccc1) was 524 nm and the emission maximum (in ClCCl) was 518 nm.
In the case of COC(=O)C(Cc1ccc2oc(-c3ccc(N(C)C)cc3)nc2c1)NC(=O)OC(C)(C)C (stereo not drawn), the emission maximum (in C1CCCCC1) is reported as 377 nm, the emission maximum (in C1CCOC1) is reported as 391.5 nm and the emission maximum (in C1COCCO1) is reported as 377 nm. The emission maximum (in CC1CCCO1) was 384.5 nm, the emission maximum (in CC1COC(=O)O1) was 404.01 nm and the emission maximum (in CC#N) was 395.51 nm. For the same compound, the emission maximum (in CC(C)=O) was 394.49 nm, the emission maximum (in CC(C)CC(C)(C)C) was 375 nm and the emission maximum (in CC(C)CO) was 396.49 nm. For the same compound, the emission maximum (in CC(C)O) was 397 nm, the emission maximum (in CC(C)OC(C)C) was 387.51 nm and the emission maximum (in CC(O)CO) was 408.5 nm. For the same compound, the emission maximum (in CCC(C)CC) was 374.5 nm, the emission maximum (in CCCCC) was 374 nm and the emission maximum (in CCCCCC) was 375 nm. The emission maximum (in CCCCCCCCC) was 376 nm, the emission maximum (in CCCCCCCCCC) was 377 nm and the emission maximum (in CCCCCCCO) was 396.49 nm. It also gave an emission maximum (in CCCCCCO) of 397.99 nm, an emission maximum (in CCCCCO) of 388.5 nm and an emission maximum (in CCCCO) of 399.5 nm. The emission maximum (in CCO) was 403 nm, the emission maximum (in CCOC(C)=O) was 381.5 nm and the emission maximum (in CCOCC) was 379.51 nm. It also gave an emission maximum (in CN(C)C=O) of 400.5 nm, an emission maximum (in CO) of 403.5 nm and an emission maximum (in COCCOC) of 395.51 nm. It also gave an emission maximum (in CS(C)=O) of 408.5 nm, an emission maximum (in Cc1ccccc1) of 374.5 nm and an emission maximum (in Cc1ccccc1C) of 373 nm. For the same compound, the emission maximum (in ClC(Cl)Cl) was 382 nm, the emission maximum (in ClCCl) was 388 nm and the emission maximum (in NC=O) was 411.51 nm. The emission maximum (in OC1CCCCC1) was 398.99 nm, the emission maximum (in OCCO) was 408.5 nm and the emission maximum (in c1ccccc1) was 375.5 nm.
COc1cn2cc(-c3ccc(C#N)cc3)[n-][n+]2c1 gave an emission maximum (in ClCCl) of 505 nm.
In the case of Cc1ccc(C2=C3C=CC([Te]c4ccccc4)=[N+]3[B-](F)(F)n3c([Te]c4ccccc4)ccc32)cc1, the emission maximum (in C1CCOC1) is reported as 659 nm.
With CCOC(=O)c1ccc(NC(=O)COc2cc3c4c([nH]c3c(C)c2C)C(=O)CCC4)cc1 the emission maximum (in C1COCCO1) was 408.59 nm, the emission maximum (in CC#N) was 422.39 nm and the emission maximum (in CCO) was 464.31 nm. It also gave an emission maximum (in CS(C)=O) of 426.09 nm, an emission maximum (in O) of 468.86 nm and an emission maximum (in c1ccccc1) of 411.45 nm.
For Oc1ccc2ccccc2c1-c1nc2c(c3c1-c1ccccc1CC3)-c1ccccc1CC2, the emission maximum (in ClCCl) was 405 nm.
For Cc1ccccc1-c1c2ccc(=[N+]3CCOCC3)cc-2oc2cc(N3CCOCC3)ccc12, the emission maximum (in CCO) was 582 nm and the emission maximum (in ClCCl) was 575 nm.
For O=C(Nc1ccccc1[N+](=O)[O-])c1ccc2oc(-c3cc4ccccc4oc3=O)nc2c1, the emission maximum (in ClCCl) was 443 nm.
Compound COc1nc(Cl)nc(Nc2ccc3c4c(cccc24)C(=O)c2ccccc2-3)n1 has an emission maximum (in CC#N) of 537.92 nm, an emission maximum (in CC(C)=O) of 526.87 nm and an emission maximum (in CC(C)O) of 570.13 nm. The emission maximum (in CCCCOCCCC) was 507.1 nm, the emission maximum (in CCOC(C)=O) was 520.02 nm and the emission maximum (in CCOCC) was 514.14 nm. For the same compound, the emission maximum (in CO) was 578.03 nm, the emission maximum (in Cc1ccccc1) was 518.13 nm and the emission maximum (in Clc1ccccc1) was 524.93 nm. For the same compound, the emission maximum (in N#Cc1ccccc1) was 526.04 nm and the emission maximum (in O=C1CCCCC1) was 524.11 nm.
